# Source: patent publication US7390783B2, “Charged phospholipid compositions and methods for their use” (Ottawa Heart Institute Research Corporation, priority 2000, dated 2008)
# Entries after “also recorded” stand apart in the source; their conditions may differ.
# Experiments:
# [1] = tested on: faecal cholesterol output; experiment: Faecal cholesterol excretion after PI or PC injection; type: in vivo, rabbit; conditions: injection into a rabbit
# Experimental: Rabbits are injected with 40 μmol PI or PC vesicles containing 400 μCi […]. Animals are sacrificed at 30 min, and bile is aspirated from the gall bladder. In addition the livers are harvested, homogenized and tissue radioactivity determined. Sterol excretion in the faeces is measured similarly except that faecal cholesterol levels are measured over a time period of 96 hours. Referring now to FIG. 7, there is graphically depicted the effect of PI injection associated with sterol excretion. […] PC injection into a rabbit had no effect on cholesterol excretion, while PI injection enhanced faecal cholesterol output by about 300% at 2 days post injection. The increase in cholesterol output returned to normal by about day 4.
# Human plasma = experiment: Plasma clotting time (prothrombin time); type: biochemical; conditions: human plasma incubated with increasing amounts of vesicles, 24 h at 4° C.
# Experimental: Referring now to FIG. 11, there is shown the effect of charged lipid on blood coagulation. Human plasma was incubated with various amounts of uncharged vesicles, phosphatidylcholine (PC) or anionic vesicles, phosphatidylinositol (PI), for 24 h at 4° C. Prothrombin time was then measured with the use of a commercially available kit.
# [2] = biological target: T1, lecithin:cholesterol acyltransferase (LCAT) (Oryctolagus cuniculus, UniProt P53761); experiment: Plasma cholesterol esterification by LCAT after injection of PC or PI; type: in vivo, rabbit; conditions: after injection of vesicles
# T1 construct: endogenous LCAT activity is reduced to about 18% that of normal; from tissue; host or cells: plasma of PI- or PC-injected rabbits
# T1 sequence (P53761 25-440): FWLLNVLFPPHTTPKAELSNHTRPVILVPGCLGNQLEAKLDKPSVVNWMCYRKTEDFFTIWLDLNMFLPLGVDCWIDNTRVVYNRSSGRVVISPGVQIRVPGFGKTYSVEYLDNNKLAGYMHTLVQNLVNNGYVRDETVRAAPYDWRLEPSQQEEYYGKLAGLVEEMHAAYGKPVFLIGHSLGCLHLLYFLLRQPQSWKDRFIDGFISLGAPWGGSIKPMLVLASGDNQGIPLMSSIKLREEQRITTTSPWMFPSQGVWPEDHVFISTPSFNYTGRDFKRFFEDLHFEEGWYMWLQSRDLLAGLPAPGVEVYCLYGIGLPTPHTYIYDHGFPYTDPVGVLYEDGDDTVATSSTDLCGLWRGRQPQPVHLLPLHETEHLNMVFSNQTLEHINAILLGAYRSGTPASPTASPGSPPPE
# Experimental: Male New Zealand white rabbits (3.5-4.0 kg) are fasted for 12 hours prior to injection and remain fasted until after data for the final time point is taken. Rabbits have free access to water during this time. A catheter is inserted into the marginal ear vein and blood samples are collected into tubes containing 7.5% (K3) EDTA solution at the desired time points. A pre-injection blood sample is taken and the vesicle solution of either PI (n=4), or PC (n=2) or saline (n=1) is injected into the marginal ear vein. A sample of blood is removed at 10, 30 min, 1, 3, 6 and 24 h after the injection. All blood samples are placed on ice and then centrifuged at 3000 rpm for 15 min at 4° C. to separate the plasma. In order to ensure that lecithin:cholesterol acyl transferase (LCAT) is inhibited in the stored plasma, iodoacetamide (150 mM) is added to plasma samples as taught by Guerin et al. (1994). The effect of PI on LCAT activity is examined using plasma samples that are not treated with iodoacetamide. 400 μL aliquots of plasma for each time point are incubated for 30 min with 10 μCi of [^3H]-FC on filter paper discs (Dobiasova et al., 1991) at 37° C. and the reaction is terminated with the addition of 2 mL ethanol. Reaction products are extracted in hexane and the amount of [^3H] associated with CE and FC is determined by thin layer chromatography. […] However, endogenous LCAT activity is reduced to about 18% that of normal (PC injected control) after about 10 min post injection of PI. Also, PI injection reduces the fractional rate of cholesterol esterification from about 45% to about 8%, of initial values, per hour. […] To investigate the effect of PI on the production and transport of CE in the plasma, the amount of radioactive CE was measured at each time point (data not shown). […] Rather it appears that PI may modify intravascular cholesterol levels by mobilizing a cellular cholesterol pool.
# HDL, LDL and VLDL = experiment: Lipoprotein surface charge after injection of PI or PC vesicles into rabbits (agarose gel electrophoresis); type: in vivo, rabbit; conditions: intravenous injection of vesicles, fasted rabbit
# Experimental: (§1) 1-palmitoyl-2-oleoyl-phosphatidylcholine (PC) and 1-palmitoyl-2-oleoyl phosphatidylinositol (PI) vesicles are prepared by drying to completion 40 μmol of each lipid into a 12×75 mm culture tube under N2. The lipids are solubilized in 3 mL of sterile saline comprising 150 mM sodium chloride (pH 7.2) by sonication for 1 minute at constant duty cycle. The vesicles are incubated at 37° C. for 10 minutes and then sonicated at a high output for 4 minutes in 10° C. water bath under N2. In order to determine the rate of clearance of cholesterol from the test animals (rabbits), a radioactive tracer is added to the vesicle preparations prior to injection into the rabbit. 200 μL of 1 μCi/μmL [^3H]-FC is dried into a 12×75 mm culture tube with 40 μmol of PI or POPC. 3 ml of PBS is added to the dried lipids and the mixture is sonicated as described above. This tracer/vesicle preparation is injected and then 5 min later, the PI or PC vesicles were injected and blood is sampled as described below.
# (§2) Male New Zealand white rabbits (3.5-4.0 kg) are fasted for 12 hours prior to injection and remain fasted until after data for the final time point is taken. Rabbits have free access to water during this time. A catheter is inserted into the marginal ear vein and blood samples are collected into tubes containing 7.5% (K3) EDTA solution at the desired time points. A pre-injection blood sample is taken and the vesicle solution of either PI (n=4), or PC (n=2) or saline (n=1) is injected into the marginal ear vein. A sample of blood is removed at 10, 30 min, 1, 3, 6 and 24 h after the injection. All blood samples are placed on ice and then centrifuged at 3000 rpm for 15 min at 4° C. to separate the plasma. In order to ensure that lecithin:cholesterol acyl transferase (LCAT) is inhibited in the stored plasma, iodoacetamide (150 mM) is added to plasma samples as taught by Guerin et al. (1994).
# Lipoprotein fractions are isolated by sequential ultracentrifugation (VLDL+IDL, d<1.019 g/mL; LDL, d=1.019-1.063 g/mL; and HDL, d=1.063-1.21 g/mL) as known to one of skill in the art, and lipoprotein lipid composition (total cholesterol, free cholesterol (FC), and triglyceride (TG) concentrations) are determined enzymatically using kits from Roche Diagnostic (Laval, PQ). An aliquot of each lipoprotein isolated is dialysed into PBS and its surface charge characteristics were determined by electrophoresis on pre-cast 0.5% agarose gels using the procedure of Sparks and Phillips (1992).
# Referring now to FIG. 1, there is illustrated the effect of injection of PI and PC vesicles on the estimated surface potential of HDL, LDL, and VLDL proteins in vivo. […] PC, which is a neutral phospholipid, may also bind to the lipoproteins. However since PC is a neutral phospholipid, no significant change in the migration of the lipoproteins is observed. The increased migratory property of lipoproteins in a gel peaks following injection of PI and returns to normal by about 24 hours. […] Similarly, the VLDL fraction is estimated to have an initial surface potential of about −8.8 mV, which increases to about −11.2 mV after 10 minutes. LDL is estimated to have an initial surface potential of about −3.9 mV, and peaks about 60 min after the PI injection at about −8.0 mV.
# [^3H]-FC in plasma = Clearance of [^3H]-FC from the blood of a rabbit; type: in vivo
# Experimental: as §1, §2
# Referring now to FIG. 5, there is shown the clearance of [^3H]-FC at various times after rabbits are injected with [^3H]-FC and either PI or PC vesicles. […] In comparison, rabbits injected with PC contain approximately 90% of the injected radioactivity after 1 h.
# [3] = tested on: lipoprotein CE and FC in whole blood (red blood cells); experiment: Incubation of whole blood with PC or PI vesicles: lipoprotein CE and FC; type: cell-based, human
# Experimental: Referring now to FIG. 4, there is graphically depicted the effect of PI or PC vesicles on lipoprotein CE and FC. Incubation of whole blood with PC vesicles results in a 60% increase in the CE content of the lipoproteins, while FC content is reduced by about 10%. […] Negatively charged phospholipids appeared to promote a reciprocal exchange of CE for FC between red blood cells and the lipoprotein particles. […] It has previously been taught that red blood cells cannot store CE and therefore utilize a membrane-bound CE hydrolase to maintain membrane FC levels. Without wishing to be bound by theory, the results therefore indicate that PI stimulates the degradation of lipoprotein CE.
# lipoprotein lipase = biological target: T2, lipoprotein lipase (Homo sapiens, UniProt P06858); experiment: Lipid hydrolysis by lipoprotein lipase in plasma enriched with charged lipid; type: biochemical; conditions: not shown
# T2 sequence (P06858 28-475): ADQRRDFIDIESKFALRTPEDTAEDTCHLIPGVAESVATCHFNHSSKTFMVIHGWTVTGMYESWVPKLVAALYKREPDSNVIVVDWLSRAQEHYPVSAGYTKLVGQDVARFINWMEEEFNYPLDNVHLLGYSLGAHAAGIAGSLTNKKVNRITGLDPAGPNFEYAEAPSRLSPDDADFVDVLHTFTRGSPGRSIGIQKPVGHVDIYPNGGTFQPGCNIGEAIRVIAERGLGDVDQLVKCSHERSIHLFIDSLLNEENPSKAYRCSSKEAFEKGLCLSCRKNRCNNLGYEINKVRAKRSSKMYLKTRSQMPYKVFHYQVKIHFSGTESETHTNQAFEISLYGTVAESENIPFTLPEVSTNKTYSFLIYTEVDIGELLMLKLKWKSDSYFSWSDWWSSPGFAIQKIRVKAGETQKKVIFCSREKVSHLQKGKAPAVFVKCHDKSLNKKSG
# Text: Referring now to FIG. 10, there is shown the effect of lipoprotein charge on hepatic lipase. High density lipoprotein particles were enriched to contain various amounts of anionic or cationic lipids and then characterized as substrates for pure human hepatic lipase. Decreasing the net negative charge on the lipoprotein was associated with a reduction in the lipolytic activity of is hepatic lipase. Lipoprotein charge can also be used to regulate lipoprotein lipase. […] Lipid hydrolysis by hepatic or lipoprotein lipase can therefore be affected by alterations in the charge properties of plasma lipoproteins.
# [4] = tested on: VLDL, LDL and HDL in human plasma; experiment: Lipoprotein charge in human plasma incubated with PI or DOTAP vesicles; type: biochemical; conditions: 24 h at 4° C.; for Lipoprotein Surface Charge LDL: no lipid 2.5; for Lipoprotein Surface Charge VLDL: no lipid 5.5; for Lipoprotein Surface Charge HDL: no lipid 11.8
# Experimental: Different concentrations as shown below of negatively charged phospholipid (PI) or positively charged phospholipid (DOTAP) were added to human plasma and the surface charge on the lipoproteins was determined. The human plasma was incubated with PI or dioleoyl trimethylammonium-propane (DOTAP) vesicles for 24 h at 4° C. and then electrophoresed on 0.5% agarose. Lipoprotein charge was calculated from electrokinetic analyses.
# HDL = experiment: Oral administration of PS: HDL charge in a human subject; type: in vivo
# Experimental: Referring now to FIG. 9, there is graphically depicted the results of oral administration of 300 mg of PS to a human subject. Plasma samples were drawn before, and over a 24 hour period after, administration of PS. HDL charge was determined electrokinetically after electrophoresis of the plasma samples on 0.5% agarose. […] Thus, orally administered negatively charged lipids is absorbed intestinally and alters lipoprotein charge in the blood stream.
molecule,measurement,setting,value
"1-palmitoyl-2-oleoyl-phosphatidylcholine [PC, reference compound]",effect on cholesterol excretion,[1],no effect
same,effect on plasma clotting time (prothrombin time),Human plasma,no significant effect
same,effect on LCAT activity / cholesteryl esterification,[2],No appreciable change
same,"effect on lipoprotein net negative surface charge / migration of HDL, LDL and VLDL into agarose gel","HDL, LDL and VLDL",negligible effect; also recorded: did not significantly affect migration
same,"[^3H]-FC in plasma, of the initial dose",[^3H]-FC in plasma; after about 1 h,approximately 90%
same,time to clear [^3H]-FC to a comparable baseline level,"[^3H]-FC in plasma; rabbit, in vivo",> 6 h
same,increase in CE content of the lipoproteins,[3],60%
same,reduction of lipoprotein FC content,[3],about 10%
"CCCCCCCC/C=C\CCCCCCCC(=O)OCC(C[N+](C)(C)C)OC(=O)CCCCCCC/C=C\CCCCCCCC (centres unmarked) [DOTAP, dioleoyl trimethylammonium propane]",effect on lipid hydrolysis by lipoprotein lipase,lipoprotein lipase,inhibited lipid hydrolysis
same,Lipoprotein Surface Charge LDL,[4]; 5 mg/ml,2.2 -mV
same,Lipoprotein Surface Charge VLDL,[4]; 5 mg/ml,4.6 -mV
same,Lipoprotein Surface Charge HDL,[4]; 5 mg/ml,11.4 -mV
same,Lipoprotein Surface Charge LDL,[4]; 10 mg/ml,1.9 -mV
same,Lipoprotein Surface Charge VLDL,[4]; 10 mg/ml,4.6 -mV
same,Lipoprotein Surface Charge HDL,[4]; 10 mg/ml,11.2 -mV
same,Lipoprotein Surface Charge LDL,[4]; 50 mg/ml,1.9 -mV
same,Lipoprotein Surface Charge VLDL,[4]; 50 mg/ml,4.1 -mV
same,Lipoprotein Surface Charge HDL,[4]; 50 mg/ml,11.0 -mV
same,Lipoprotein Surface Charge LDL,[4]; 100 mg/ml,1.7 -mV
same,Lipoprotein Surface Charge VLDL,[4]; 100 mg/ml,4.1 -mV
same,Lipoprotein Surface Charge HDL,[4]; 100 mg/ml,10.9 -mV
phosphatidylserine [PS],HDL charge,"HDL; by 6 hours after 300 mg oral, from −10.9 mV before, 'over' = more negative",over −12 mV
same,HDL charge,HDL; by 24 hours after 300 mg oral,−11.4 mV
